According to US7625887B2, “Receptor agonists” (Takeda Pharmaceutical Company Limited, priority 2003, dated 2009):

Columns and labels:
[1] = system: THP-TGR5 cells; test: suppression of LPS induced TNF α secretion in THP-TGR5 cells; assay type: cell-based, human; details: test compound 10 μM, non-addition: 11 with LPS, 2.7 without LPS
Method: TGR5 high expression cells were established by introducing TGR5 gene into human macrophage cells line THP-1. According to a conventional method, pcDNA-TGR5 incorporating cDNA of human TGR5 in pcDNA3.1 (Invitrogen) was prepared. Then, THP-1 was cultured in a medium (RPMI1640 10% FBS), and pcDNA-TGR5 was introduced thereinto using lipofectamine (Gibco BRL) according to conventional methods. Thereafter, G418 (Gibco BRL) was added to the medium to select resistant strains, and cells line, THP-TGR5 that expresses TGR5 stably and highly was established.
THP-TGR5 thus obtained was diluted to a concentration of 1×10^5/well and cultured overnight in a 96 well plate in the presence of 10^−8M phorbol ester (Wako Pure Chemical Industries, Ltd.). THP-TGR5 after culture was cultured for 1 hr in a medium containing a test compound or a control medium (0.1 ml) free of a test compound, 0.1 ml of a medium containing the same concentration of the test compound or a control medium free of the test compound, each of which containing LPS for induction of TNF α secretion was added (concentration at the time of addition 50 ng/ml) and the mixture was incubated at 37° C. under 5% CO2 for 14 hrs. The culture supernatant was collected and the TNF α content was measured with the growth suppressing effect on the TNF sensitive cell line L929 (RIKEN Institute) as an index.
L929 cells were seeded in a 96 well plate at 1.2×10^4/well and incubated overnight at 37° C. under 5% CO2. The obtained culture product was cultured overnight in a medium (phenol red free Dulbecco's Modified Eagle Medium (Invitrogen) supplemented with 10% fetal bovine serum (Invitrogen), 100 U/ml penicillin and 100 μg/ml streptomycin), which contained the aforementioned THP-TGR5-containing culture supernatant and 2 μg/ml Actinomycin D (Wako Pure Chemical Industries, Ltd.). The TNF α content was determined by measuring the growth of the L929 cells in the obtained culture product using a Cell Counting Kit-8 (Wako Pure Chemical Industries, Ltd.). As the standard sample, human recombinant TNF α (Genzyme) was used.

[2] = target: T1, human TGR5 (Homo sapiens, UniProt Q8TDU6); test: cAMP production increasing activity in human TGR5 expressing CHO cells; assay type: cell-based; details: test compound 1 μM, 30 min; 1 μM lithocholic acid = 100%, no addition = 0%; average of 3 groups
T1 construct: expressed in transfected cells; host or cells: CHO cells
T1 sequence (Q8TDU6 1-330): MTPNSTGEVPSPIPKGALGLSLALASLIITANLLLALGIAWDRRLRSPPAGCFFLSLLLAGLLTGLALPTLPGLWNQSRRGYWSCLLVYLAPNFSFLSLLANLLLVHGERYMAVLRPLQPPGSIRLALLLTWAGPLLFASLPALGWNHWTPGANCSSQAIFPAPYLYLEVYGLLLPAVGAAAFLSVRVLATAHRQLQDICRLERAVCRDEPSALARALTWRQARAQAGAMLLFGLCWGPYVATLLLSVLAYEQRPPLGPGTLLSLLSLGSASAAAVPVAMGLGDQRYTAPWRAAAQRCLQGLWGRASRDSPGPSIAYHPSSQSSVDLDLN
Method: As the assay buffer, Hank's balanced salt solution (HBSS, Invitrogen) supplemented with 0.1% bovine serum albumin (BSA, Sigma) and 0.5 mM 3-isobutyl-1-methylxanthine (IBMX, Sigma) was used. A test compound sample (1 μM) diluted with the assay buffer was added to the cells. The cells were incubated at 37° C. for 30 min. and the supernatant was suctioned. The intracellular cAMP amount increased by the stimulation of the test compound was quantitatively determined using a HitHunter™ EFC Cyclic AMP Chemiluminescence Assay Kit (ABI) kit.

[3] = system: mock CHO cells free of human TGR5 expression; test: cAMP production increasing activity in mock CHO cells free of human TGR5 expression; assay type: cell-based; details: average of 3 groups
Method: As the assay buffer, Hank's balanced salt solution (HBSS, Invitrogen) supplemented with 0.1% bovine serum albumin (BSA, Sigma) and 0.2 mM 3-isobutyl-1-methylxanthine (IBMX, Sigma) was used. The cells were washed twice with the assay buffer and preincubated at 37° C. for 30 min. The cells were washed twice, and test compound samples (10 μM) diluted with the assay buffer to various concentrations were added. The cells were incubated at 37° C. for 20 min. The culture supernatant was discarded, and the cAMP production amount was measured using a cAMP Screen System (ABI).

| Compound | TNF α [1] [ng/mL] | cAMP production increasing activity (control %) [2] [control %] | cAMP production increasing activity ([3]; Experimental Example 2, Forskolin 2 μM, Base 0.85) [pmol] | cAMP production increasing activity ([3]; Experimental Example 4, test compounds 2 μM, Base 0.28) [pmol] | cAMP production increasing activity ([3]; Experimental Example 5, test compounds 2 μM, Base 0.19) [pmol] |
| --- | --- | --- | --- | --- | --- |
| CC(=O)NCc1cccc([C@@H]2O[C@H](CC(=O)NCc3ccccc3F)C(=O)N(CC(C)(C)C)c3ccc(Cl)cc32)c1 (relative stereo) [Reference Example 3, 2-[3,5-trans-5-[3-(acetylaminomethyl)phenyl]-7-chloro-1-neopentyl-2-oxo-1,2,3,5-tetrahydro-4,1-benzoxazepin-3-yl]-N-(2-fluorobenzyl)acetamide] | 0.33 | 85 | – | – | – |
| COC(=O)NCc1cccc([C@@H]2O[C@H](CC(=O)NCc3ccccc3F)C(=O)N(CC(C)(C)C)c3ccc(Cl)cc32)c1 (relative stereo) [Reference Example 6, methyl [3-[3,5-trans-7-chloro-3-[2-[(2-fluorobenzyl)amino]-2-oxoethyl]-1-neopentyl-2-oxo-1,2,3,5-tetrahydro-4,1-benzoxazepin-5-yl]benzyl]carbamate] | 0.32 | 98 | – | – | – |
| C=C[C@@]1(C)CC(=O)[C@]2(O)[C@@]3(C)[C@@H](O)CCC(C)(C)[C@@H]3[C@H](O)[C@H](OC(C)=O)[C@@]2(C)O1 [Forskolin, reference compound] | – | – | 4.02 | 5.68 | 3.01 |
| CCOC(=O)CC1C(=O)N(CC(C)(C)C)c2ccccc2CN1C(=O)OC(C)(C)C (centres unmarked) [Reference Example 1B, tert-butyl 3-(2-ethoxy-2-oxoethyl)-1-neopentyl-2-oxo-1,2,3,5-tetrahydro-4H-1,4-benzodiazepine-4-carboxylate] | 0.63 | – | – | – | – |
